Test results taken from patent US10265303B2, “Hyperphenylalaninemia and treatments thereof” (BERGEN TEKNOLOGIOVERFØRING AS, priority 2015, dated 2019).

Legend:
[1] = biological target: T1, R261Q-PAH (Homo sapiens, UniProt P00439, R261Q); test: PAH protein level and activity in HEK293 EBNA cells transiently expressing PKU mutant R261Q; type: cell-based; details: 24 h
T1 construct: expressed in transfected cells; host or cells: HEK293 EBNA, transient, pcDNA3-PAH
T1 sequence (P00439 1-452 R261Q): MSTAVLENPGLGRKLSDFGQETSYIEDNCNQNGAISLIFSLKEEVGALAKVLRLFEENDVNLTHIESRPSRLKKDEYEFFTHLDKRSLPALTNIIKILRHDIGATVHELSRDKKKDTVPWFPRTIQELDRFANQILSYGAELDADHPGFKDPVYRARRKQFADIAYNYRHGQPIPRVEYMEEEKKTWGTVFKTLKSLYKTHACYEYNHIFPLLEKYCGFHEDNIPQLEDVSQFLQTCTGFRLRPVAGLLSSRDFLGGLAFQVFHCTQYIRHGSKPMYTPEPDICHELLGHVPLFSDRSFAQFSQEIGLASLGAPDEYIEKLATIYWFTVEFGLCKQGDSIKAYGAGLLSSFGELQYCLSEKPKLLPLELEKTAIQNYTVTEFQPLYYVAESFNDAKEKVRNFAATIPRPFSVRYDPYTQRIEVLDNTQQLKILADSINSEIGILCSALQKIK
Experimental: Cell lysates were prepared as indicated above.

[2] = biological target: full-length tetrameric wild-type hPAH (Homo sapiens, UniProt P00439); details: 137.8 μM compound, 2% DMSO
Sequence of full-length tetrameric wild-type hPAH (P00439 whole entry, the tested form may be a part): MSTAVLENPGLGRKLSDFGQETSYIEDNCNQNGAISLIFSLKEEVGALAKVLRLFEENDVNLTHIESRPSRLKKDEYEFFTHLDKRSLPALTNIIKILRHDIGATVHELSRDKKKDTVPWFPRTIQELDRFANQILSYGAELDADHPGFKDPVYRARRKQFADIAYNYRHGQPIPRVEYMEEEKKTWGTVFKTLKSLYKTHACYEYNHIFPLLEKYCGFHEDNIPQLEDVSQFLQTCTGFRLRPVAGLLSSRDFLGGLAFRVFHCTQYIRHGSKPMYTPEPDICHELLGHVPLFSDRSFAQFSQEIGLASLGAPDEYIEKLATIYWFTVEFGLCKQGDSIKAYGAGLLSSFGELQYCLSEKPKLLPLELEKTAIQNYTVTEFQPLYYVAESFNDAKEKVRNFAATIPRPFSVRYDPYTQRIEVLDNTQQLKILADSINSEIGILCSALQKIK
Experimental: (§1) Tetrameric full length wild-type (WT) human PAH (hPAH) and truncated ΔN102/ΔC24-hPAH corresponding to a dimeric form containing the catalytic domain of known crystal structure were recombinantly expressed in E. coli fused to maltose-binding protein and purified by amylose-affinity chromatography and further cleaved and isolated to homogeneity essentially as described [Martinez, A., et al., Biochem. J., 1995. 306: p. 589-597]. Protein concentration was measured in a NanoDrop spectrophotometer (Thermo Scientific) using the absorbance at 280 nm and the theoretical molar extinction coefficient of 49780 M^−1 cm^−1 for WT-PAH and 46675 M^−1 cm^−1 for ΔN102/ΔC24-hPAH.
(§2) PAH activity on isolated recombinant enzymes was measured at 37° C. for 1 min with quantification of L-Tyr formed by HPLC with fluorimetric detection, essentially as described [Martinez et al. supra] with the indicated concentrations of the compounds. […] After an equilibration of the plate at 37° C. for 3 min the reaction was initiated by adding 75 μM BH4 (Schircks Laboratories, Jona, Switzerland) in 5 mM DTT and stopped after 1 min by adding 50 μl of 2% (v/v) acetic acid in ethanol (all concentrations referred to a final reaction volume of 50 μl) prior to determination of L-Tyr produced by HPLC with fluorimetric detection (γexcitation=274 nm; γemission=304 nm). Controls with 2% DMSO without compound were routinely assayed as references for data processing. A BRAVO automated liquid handling platform was used in these assays.
(§3) The steady-state kinetic parameters were estimated with 0.25 μg hPAH (0.965 μM subunit), 1 mM L-Phe and different BH4 concentrations in the range 0-400 μM, and with 100 μM BH4 and L-Phe (0-1 mM). The saturation curves were fitted to hyperbolic (for BH4) or sigmoidal (for L-Phe) kinetic models with SigmaPlot v. 9.0. (SPSS). Kinetic parameters are presented as mean±SEM obtained from nonlinear regression analysis.

[3] = biological target: truncated dimeric hPAH ΔN102/ΔC24 (Homo sapiens, UniProt P00439); details: 137.8 μM compound, 2% DMSO, 1 mM L-Phe
Sequence of truncated dimeric hPAH ΔN102/ΔC24 (P00439 103-428 limits assumed): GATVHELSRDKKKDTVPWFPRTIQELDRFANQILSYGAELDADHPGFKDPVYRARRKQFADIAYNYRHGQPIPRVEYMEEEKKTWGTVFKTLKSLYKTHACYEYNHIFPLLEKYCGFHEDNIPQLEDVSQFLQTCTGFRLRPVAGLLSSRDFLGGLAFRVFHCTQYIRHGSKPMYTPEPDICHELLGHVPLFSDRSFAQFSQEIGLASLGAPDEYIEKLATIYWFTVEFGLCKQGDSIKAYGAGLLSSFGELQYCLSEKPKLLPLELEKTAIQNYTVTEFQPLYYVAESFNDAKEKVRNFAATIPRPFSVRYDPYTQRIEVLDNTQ
Experimental: as §1, §2, §3

[4] = biological target: tyrosine hydroxylase (TH) (Homo sapiens, UniProt P07101); details: 68.9 μM, respect to 2% DMSO controls
Sequence of tyrosine hydroxylase (TH) (P07101 whole entry): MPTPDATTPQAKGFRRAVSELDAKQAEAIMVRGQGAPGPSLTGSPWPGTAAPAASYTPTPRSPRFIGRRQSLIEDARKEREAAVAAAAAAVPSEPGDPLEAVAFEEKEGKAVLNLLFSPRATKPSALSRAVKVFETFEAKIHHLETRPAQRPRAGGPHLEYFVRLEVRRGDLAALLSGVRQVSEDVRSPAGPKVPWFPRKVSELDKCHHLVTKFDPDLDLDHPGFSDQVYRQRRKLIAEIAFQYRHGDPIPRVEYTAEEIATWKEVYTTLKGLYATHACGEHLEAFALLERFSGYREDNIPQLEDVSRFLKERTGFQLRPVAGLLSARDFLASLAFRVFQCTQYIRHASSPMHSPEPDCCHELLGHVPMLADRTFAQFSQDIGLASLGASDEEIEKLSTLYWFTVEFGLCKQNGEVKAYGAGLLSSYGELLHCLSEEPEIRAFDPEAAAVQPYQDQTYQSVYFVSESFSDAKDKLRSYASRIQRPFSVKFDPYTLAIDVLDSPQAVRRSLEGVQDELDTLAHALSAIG

[5] = biological target: tryptophan hydroxylase 2 (TPH2) (Homo sapiens, UniProt Q8IWU9); details: 68.9 μM, respect to 2% DMSO controls
Sequence of tryptophan hydroxylase 2 (TPH2) (Q8IWU9 whole entry, species assumed): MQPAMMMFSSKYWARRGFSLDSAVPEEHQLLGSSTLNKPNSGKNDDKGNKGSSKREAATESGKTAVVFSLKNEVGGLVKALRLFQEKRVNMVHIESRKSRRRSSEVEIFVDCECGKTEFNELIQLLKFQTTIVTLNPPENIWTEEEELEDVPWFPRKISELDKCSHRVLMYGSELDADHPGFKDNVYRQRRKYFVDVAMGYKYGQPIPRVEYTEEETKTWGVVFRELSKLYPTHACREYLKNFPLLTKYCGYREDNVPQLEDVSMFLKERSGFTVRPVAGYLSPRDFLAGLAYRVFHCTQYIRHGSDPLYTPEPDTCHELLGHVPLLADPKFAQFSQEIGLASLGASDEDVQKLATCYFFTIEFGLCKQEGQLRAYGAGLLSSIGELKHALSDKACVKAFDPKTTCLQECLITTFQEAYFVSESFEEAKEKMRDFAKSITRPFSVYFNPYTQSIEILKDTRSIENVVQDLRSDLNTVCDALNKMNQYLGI

protein and activity, mutant R261Q, Compound 53 and BH2 together ([1]; 200 μM each): trends for additive effects
PAH activity, mutant R261Q ([1]; 200 μM, 1% DMSO): greatly increased
hPAH protein level, mutant R261Q ([1]; 200 μM, 1% DMSO): greatly increased
effect on Vmax and Km for BH4 ([2]; 1 mM L-Phe): decreased Vmax and Km for the cofactor
mode of inhibition towards BH4 ([2]; 1 mM L-Phe): uncompetitive inhibition
effect on TH activity [4]: did not have large effect
effect on TPH2 activity [5]: did not have large effect
SMILES: COc1cc(Cc2cnc(N)nc2N)cc(OC)c1OC [c53, trimethoprim]
effect on kinetic parameters for L-Phe (Vmax and S0.5) ([2]; 100 μM BH4): does not affect the kinetic parameters for the substrate
effect on Vmax and Km for BH4 [3]: did not change the Vmax or Km-values for BH4
